Where “and” joins values, the source holds several entries; their conditions need not be identical. Identical values can stand only once. Like-named read-outs stand apart in the source and are kept apart here.
How the values were obtained:
[1] = biological target: T1, wild-type (wt) GluN1/GluN2B receptors (UniProt P35439+Q01097); assay: TEVC recordings in Xenopus oocytes, allosteric modulator sensitivity; format: cell-based, rat (GluN1), mouse (GluN2B)
T1 construct: For full-length multimeric membrane-embedded receptors studied in cellulo, as done in the present work; expressed in transfected cells; host or cells: Xenopus laevis oocytes (nuclear cDNA injection, pcDNA3 plasmids)
T1 sequence (Q01097 27-1482, other chains not shown): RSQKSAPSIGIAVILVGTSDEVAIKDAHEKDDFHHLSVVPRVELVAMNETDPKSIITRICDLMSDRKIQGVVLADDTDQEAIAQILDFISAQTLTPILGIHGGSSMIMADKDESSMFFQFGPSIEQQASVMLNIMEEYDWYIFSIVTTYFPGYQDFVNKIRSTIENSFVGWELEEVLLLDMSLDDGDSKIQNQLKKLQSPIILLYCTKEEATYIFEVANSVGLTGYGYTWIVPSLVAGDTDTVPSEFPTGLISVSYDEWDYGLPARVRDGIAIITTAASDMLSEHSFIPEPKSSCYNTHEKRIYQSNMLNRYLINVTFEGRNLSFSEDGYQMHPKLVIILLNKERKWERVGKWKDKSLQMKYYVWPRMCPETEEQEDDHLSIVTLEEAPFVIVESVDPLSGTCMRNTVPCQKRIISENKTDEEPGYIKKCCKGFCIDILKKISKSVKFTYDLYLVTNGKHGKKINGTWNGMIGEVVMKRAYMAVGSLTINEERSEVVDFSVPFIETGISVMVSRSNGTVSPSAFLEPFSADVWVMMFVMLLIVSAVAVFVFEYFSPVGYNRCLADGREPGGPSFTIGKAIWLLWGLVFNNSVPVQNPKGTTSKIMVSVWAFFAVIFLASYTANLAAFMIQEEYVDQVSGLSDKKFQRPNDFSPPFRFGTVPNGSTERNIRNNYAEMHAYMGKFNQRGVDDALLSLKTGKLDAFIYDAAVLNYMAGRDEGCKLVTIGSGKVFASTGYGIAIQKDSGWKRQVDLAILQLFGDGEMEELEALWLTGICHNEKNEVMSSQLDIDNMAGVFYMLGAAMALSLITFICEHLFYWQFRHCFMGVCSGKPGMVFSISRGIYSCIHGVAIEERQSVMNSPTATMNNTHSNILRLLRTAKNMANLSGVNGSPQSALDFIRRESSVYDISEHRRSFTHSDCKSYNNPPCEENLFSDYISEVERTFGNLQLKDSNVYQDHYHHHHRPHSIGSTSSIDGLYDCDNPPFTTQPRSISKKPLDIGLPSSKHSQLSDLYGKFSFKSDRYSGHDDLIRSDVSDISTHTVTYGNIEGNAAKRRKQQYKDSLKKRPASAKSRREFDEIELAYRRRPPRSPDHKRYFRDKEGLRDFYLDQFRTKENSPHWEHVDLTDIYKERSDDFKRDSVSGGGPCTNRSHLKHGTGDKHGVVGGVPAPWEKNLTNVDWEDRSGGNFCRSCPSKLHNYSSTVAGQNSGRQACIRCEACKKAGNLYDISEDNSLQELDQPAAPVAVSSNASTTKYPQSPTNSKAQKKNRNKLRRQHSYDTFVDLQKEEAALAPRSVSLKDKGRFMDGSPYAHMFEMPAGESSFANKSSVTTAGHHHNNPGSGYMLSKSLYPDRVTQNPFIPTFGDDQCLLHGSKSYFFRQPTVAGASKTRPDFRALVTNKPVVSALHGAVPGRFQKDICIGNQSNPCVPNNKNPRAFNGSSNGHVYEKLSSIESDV
Protocol: (§1) The pcDNA3-based expression plasmids for rat GluN1-1a (named GluN1 herein), rat GluN2A, and mouse GluN2B (also known as ε2) subunits, Pfu-based site-directed mutagenesis strategy, and sequencing procedure have been described previously[68],[69]. Incorporation of the unnatural amino acids (UAAs) AzF and BzF into NMDARs was performed using the genetic code expansion methodology as previously described[52],[53],[83]. The plasmid pSVB.Yam carrying the gene encoding the amber suppressor tRNA derived from B. stearothermophilus Tyr-tRNACUA, while the aminoacyl-tRNA synthetases (aaRS) construction for AzF and BzF derived from E. coli TyrRS[84],[85].
(§2) Recombinant NMDARs were expressed in Xenopus laevis oocytes after nuclear injection of 36 nl of a mixture of cDNAs (at 10–30 ng/μl) encoding various GluN1 and GluN2 subunits (ratio 1:1). Oocytes were prepared, injected, incubated, and voltage-clamped as described previously. For UAA incorporation, oocytes were co-injected with 36 nl of a cDNA mixture encoding for of GluN1, GluN2, Yam, and aaRS as follows, unless otherwise indicated in the text: GluN1-K178amber (120 ng/μl), GluN2A (80 ng/µl) or GluN2B (120 ng/μl), Yam (10 ng/μl), AzF-RS (5 ng/μl). After injection, oocytes were incubated at 19 °C in a Barth solution containing (in mM) 88 NaCl, 1 KCl, 0.33 Ca(NO3)2, 0.41 CaCl2, 0.82 MgSO4, 2.4 NaHCO3, 10 HEPES (pH adjusted to 7.6 with NaOH) supplemented with gentamicin ([…]) and the NMDAR glutamate binding site competitive antagonist D-APV (50 μM). AzF and BzF were added to the incubation medium at final concentrations of 1 mM and 2 mM, respectively.
(§3) For all experiments, except those on pH and spermine sensitivity, the standard external solution contained (in mM): 100 NaCl, 0.3 BaCl2, and 5 HEPES (pH adjusted to 7.3 with KOH). […] For the pH and spermine sensitivity experiments, an external solution enriched in HEPES was used to insure proper pH buffering. Unless otherwise mentioned, NMDAR-mediated currents were induced by simultaneously applications of saturating concentrations of glutamate and glycine (100 μM each). Glutamate and glycine dose-response curves (DRC) were performed in the presence of 100 µM glycine and 100 µM glutamate, respectively. Recordings were performed at a holding potential of −60 mV and at room temperature. Data were collected and analyzed using Clampex 10.5 and Clampfit 10.5 (Molecular Devices), respectively, and fitted using KaleidaGraph 4.0 (Synergy software).
(§4) EC50 and nH were fitted as free parameters. […] For proton DRC, corrections for small shifts in the reference potential of bath electrodes and analysis of the data were performed as previously described. Spermine experiments were performed and analyzed as previously described. In brief, spermine sensitivity was assessed at pH 6.5 and at a holding potential of −30 mV to maximize the spermine induced potentiation. […] EC50, a and nH were set as free parameters. MK-801 is an NMDAR open channel blocker with slow reversibility and, consequently, the rate at which MK-801 inhibits NMDAR responses depends on the level of channel activity, that is, channel open probability (Po). Based on this principle, MK-801 is classically used to estimate the level of NMDAR channel activity in macroscopic whole-cell recordings[36],[47],[56],[86],[87]. Note, however, that MK- 801 inhibition kinetics can index relative, not absolute, Po. MK-801 solutions (10 nM for GluN2A-containing receptors and 50 nM for GluN2B-containing receptors) were prepared by dilution of a stock solution (50 mM) into the agonist containing solutions. MK-801 time constants of inhibition (τon) were obtained by fitting currents with a single-exponential component to a time window corresponding to 10–90% of maximum inhibition. On-rate (kon) constants were then calculated assuming a pseudo first-order reaction scheme: kon = 1 / ([MK-801]*τon).

[2] = biological target: T2, GluN1-K178AzF/GluN2B receptors (UniProt P35439+Q01097, K178F); assay: TEVC recordings in Xenopus oocytes, modulator sensitivity before and after UV photocrosslinking; format: cell-based, rat (GluN1), mouse (GluN2B); settings: for Isper/Io 20 μM: 20 μM spermine; for Isper/Io 20 μM / Isper/Io 200 μM / Isper/Io 1000 μM / spermine maximal potentiation / spermine nH / EC50: pH 6.5, -30 mV; for Isper/Io 200 μM: 200 μM spermine; for Isper/Io 1000 μM: 1000 μM spermine; for EC50: read-out: spermine EC50
T2 construct: For full-length multimeric membrane-embedded receptors studied in cellulo, as done in the present work; expressed in transfected cells; host or cells: Xenopus laevis oocytes, co-injected with amber suppressor tRNA (Yam) and AzF-RS
T2 sequence (Q01097 27-1482, other chains not shown): as above
Protocol: as §1, §2, §3, §4

[3] = biological target: T3, GluN1/GluN2B-N218C receptors (UniProt P35439+Q01097, N218C); assay: TEVC recordings in Xenopus oocytes, zinc and ifenprodil inhibition dose-response; format: cell-based, rat (GluN1), mouse (GluN2B)
T3 construct: For full-length multimeric membrane-embedded receptors studied in cellulo, as done in the present work; expressed in transfected cells; host or cells: Xenopus laevis oocytes
Protocol: as §1, §2, §3, §4

[4] = biological target: T4, GluN1-N512C-L777C/GluN2B-E517C-L781C receptors (UniProt P35439+Q01097, E517C/L777C/L781C/N521C); assay: as above; format: cell-based, rat (GluN1), mouse (GluN2B)
T4 construct: For full-length multimeric membrane-embedded receptors studied in cellulo, as done in the present work; expressed in transfected cells; host or cells: Xenopus laevis oocytes
Protocol: as §1, §2, §3, §4

[5] = biological target: T5, GluN1-K178AzF/GluN2A receptors (Rattus norvegicus, UniProt P35439+Q00959, K178F); assay: TEVC recordings in Xenopus oocytes, modulator sensitivity before and after UV photocrosslinking; format: cell-based
T5 construct: For full-length multimeric membrane-embedded receptors studied in cellulo, as done in the present work; expressed in transfected cells; host or cells: Xenopus laevis oocytes, co-injected with amber suppressor tRNA (Yam) and AzF-RS
T5 sequence (Q00959 23-1464, other chains not shown): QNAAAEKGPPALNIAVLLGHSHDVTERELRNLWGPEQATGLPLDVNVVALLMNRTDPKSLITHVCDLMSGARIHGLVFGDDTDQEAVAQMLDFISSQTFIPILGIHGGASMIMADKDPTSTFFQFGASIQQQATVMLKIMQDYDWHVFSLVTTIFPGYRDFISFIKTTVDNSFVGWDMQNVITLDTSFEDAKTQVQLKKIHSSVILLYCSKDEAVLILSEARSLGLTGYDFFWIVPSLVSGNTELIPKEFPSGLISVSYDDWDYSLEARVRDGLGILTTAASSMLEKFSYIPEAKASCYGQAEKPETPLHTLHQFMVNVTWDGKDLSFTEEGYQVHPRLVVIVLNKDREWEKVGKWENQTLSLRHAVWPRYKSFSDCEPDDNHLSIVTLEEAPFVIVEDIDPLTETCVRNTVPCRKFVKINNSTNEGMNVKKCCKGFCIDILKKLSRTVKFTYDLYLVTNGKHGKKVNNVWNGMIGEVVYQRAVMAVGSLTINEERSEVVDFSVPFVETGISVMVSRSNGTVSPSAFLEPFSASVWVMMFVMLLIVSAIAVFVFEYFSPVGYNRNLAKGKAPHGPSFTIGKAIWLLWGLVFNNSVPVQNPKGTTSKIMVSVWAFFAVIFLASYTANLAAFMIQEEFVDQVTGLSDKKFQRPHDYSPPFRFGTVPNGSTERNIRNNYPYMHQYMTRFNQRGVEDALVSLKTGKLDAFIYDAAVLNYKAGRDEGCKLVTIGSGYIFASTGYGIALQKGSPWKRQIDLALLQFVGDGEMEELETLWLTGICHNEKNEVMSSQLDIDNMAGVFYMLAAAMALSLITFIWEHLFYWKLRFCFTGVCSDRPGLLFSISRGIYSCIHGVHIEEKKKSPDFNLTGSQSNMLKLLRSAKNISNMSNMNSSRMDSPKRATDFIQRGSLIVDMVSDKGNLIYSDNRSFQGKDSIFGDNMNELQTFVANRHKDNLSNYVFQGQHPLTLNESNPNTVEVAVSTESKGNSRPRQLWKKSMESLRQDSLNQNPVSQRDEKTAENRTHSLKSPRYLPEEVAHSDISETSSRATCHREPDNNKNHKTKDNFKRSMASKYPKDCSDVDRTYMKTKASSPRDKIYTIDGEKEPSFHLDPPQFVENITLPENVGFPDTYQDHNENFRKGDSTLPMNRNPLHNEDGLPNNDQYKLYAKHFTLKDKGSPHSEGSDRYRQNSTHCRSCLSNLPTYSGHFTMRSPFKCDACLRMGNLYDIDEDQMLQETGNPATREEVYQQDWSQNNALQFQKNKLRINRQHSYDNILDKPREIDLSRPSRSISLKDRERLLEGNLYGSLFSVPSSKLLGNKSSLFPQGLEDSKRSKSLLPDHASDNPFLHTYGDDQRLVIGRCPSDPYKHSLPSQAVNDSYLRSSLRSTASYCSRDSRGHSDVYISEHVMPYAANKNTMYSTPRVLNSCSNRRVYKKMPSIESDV
Protocol: as §1, §2, §3, §4

[6] = pH 6.5, holding potential -30 mV
[7] = pH 8.3 (second column so headed), +UV

NCCCNCCCCNCCCN [spermine]
Isper/Io 20 μM ([1]; 20 μM spermine, pH 6.5, -30 mV): 1.74 ± 0.06 | Isper/Io 200 μM ([1]; 200 μM spermine, pH 6.5, -30 mV): 6.89 ± 0.52 | Isper/Io 1000 μM ([1]; 1000 μM spermine, pH 6.5, -30 mV): 12.55 ± 0.41 | spermine maximal potentiation [1, 6]: 11.2 ± 3.3 | spermine nH [1, 6]: 1.26 ± 0.09 | EC50 ([1]; pH 6.5, holding potential -30 mV, read-out: spermine EC50): 174 ± 64.5 µM | Isper/Io 20 μM ([2]; +UV): 1.24 ± 0.03 | Isper/Io 20 μM ([2]; -UV): 2.11 ± 0.15 | Isper/Io 200 μM ([2]; +UV): 2.12 ± 0.26 | Isper/Io 200 μM ([2]; -UV): 13.65 ± 1.01 | Isper/Io 1000 μM ([2]; +UV): 2.49 ± 0.42 | Isper/Io 1000 μM ([2]; -UV): 23.05 ± 1.52 | spermine maximal potentiation ([2]; after UV): 1.6 ± 0.5 | spermine nH ([2]; after UV): 1.14 ± 0.16 | EC50 ([2]; after UV): 93 ± 22.8 µM | spermine maximal potentiation ([2]; before UV): 26.1 ± 2.5 | spermine nH ([2]; before UV): 1.29 ± 0.22 | EC50 ([2]; before UV): 215 ± 63.2 µM

CC(C(O)c1ccc(O)cc1)N1CCC(Cc2ccccc2)CC1 (centres unmarked) [ifenprodil, Ifenprodil]
ifenprodil Hill slope (nH) [3]: 1.08 ± 0.06 | ifenprodil maximal inhibition [3]: 0.99 ± 0.02 | ifenprodil Hill slope (nH) [4]: 0.83 ± 0.13 | ifenprodil maximal inhibition [4]: 0.76 ± 0.03 | ifenprodil Hill slope (nH) [1]: 1.22 ± 0.04 and 1.14 ± 0.11 and 1.11 ± 0.07 | ifenprodil maximal inhibition [1]: 0.95 ± 0.02 and 0.93 ± 0.01 | ifenprodil Hill slope (nH) ([2]; after UV): 1.25 ± 0.11 | ifenprodil maximal inhibition ([2]; after UV): 0.54 ± 0.06 | ifenprodil Hill slope (nH) ([2]; before UV): 1.25 ± 0.39 | ifenprodil maximal inhibition ([2]; before UV): 0.98 ± 0.09

[1H+] [proton]
pHIC50 (proton sensitivity) ([5]; after UV): 7.01 ± 0.01 | proton Hill slope (nH) ([5]; after UV): 1.93 ± 0.07 | pHIC50 (proton sensitivity) ([5]; before UV): 7.00 ± 0.02 | proton Hill slope (nH) ([5]; before UV): 1.91 ± 0.11 | proton, relative current at pH 6.3 ([5]; pH 6.3, +UV): 0.04 ± 0.01 | proton, relative current at pH 6.3 ([5]; pH 6.3, -UV): 0.04 ± 0.01 | proton, relative current at pH 7.3 ([5]; pH 7.3, +UV): 0.78 ± 0.03 | proton, relative current at pH 7.3 ([5]; pH 7.3, -UV): 0.79 ± 0.03 | proton, relative current at pH 8.3 [5, 7]: 1.00 ± 0.02 | proton, relative current at pH 8.3 ([5]; pH 8.3, +UV): 0.99 ± 0.02 | proton, relative current at pH 8.3 ([5]; pH 8.3, -UV): 0.99 ± 0.02 | proton, relative current at pH 9.3 ([5]; pH 9.3, -UV): 1.01 ± 0.04 | pHIC50 (proton sensitivity) ([2]; after UV): 6.90 ± 0.02 | proton Hill slope (nH) ([2]; after UV): 0.99 ± 0.03 | pHIC50 (proton sensitivity) ([2]; before UV): 7.60 ± 0.01 | proton Hill slope (nH) ([2]; before UV): 1.37 ± 0.05 | proton, relative current at pH 6.3 ([2]; pH 6.3, +UV): 0.21 ± 0.09 | proton, relative current at pH 6.3 ([2]; pH 6.3, -UV): 0.03 ± 0.02 | proton, relative current at pH 7.3 ([2]; pH 7.3, +UV): 0.71 ± 0.02 | proton, relative current at pH 7.3 ([2]; pH 7.3, -UV): 0.28 ± 0.04 | proton, relative current at pH 8.3 [2, 7]: 0.98 ± 0.01 | proton, relative current at pH 8.3 ([2]; pH 8.3 (second column so headed), -UV): 1.00 ± 0.03 | proton, relative current at pH 8.3 ([2]; pH 8.3, +UV): 0.97 ± 0.03 | proton, relative current at pH 8.3 ([2]; pH 8.3, -UV): 0.90 ± 0.04 | rightward shift in the pH dose-response curve ([2]; post-UV vs pre-UV): > 0.5 pH-unit

— article PMC8342458, “GluN2A and GluN2B NMDA receptors use distinct allosteric routes” (Nature Communications, 2021)
